Results from US4032659A (priority 1975, dated 1977).
“Also recorded” adds a separate entry of the source. Like-named read-outs stand apart in the source and are kept apart here.

Columns and labels:
Influenza PR 8 virus = test: Chemoprophylaxis of Influenza PR 8 virus infection in mice; format: in vivo, mouse
[1] = tested on: Influenza Ann Arbor virus; test: Chemoprophylaxis of Influenza Ann Arbor (A1) virus infection in mice; format: in vivo, mouse
Herpes virus [2] = test: Herpes virus in eggs (chick embryo survival); format: in vivo, chicken eggs; details: for Deaths on day 1 / Deaths on day 2 / Deaths on day 3 / Total Deaths 4th Day / Deaths on day 4: 12 eggs
[3] = tested on: Influenza B Massachusetts virus; test: Chemoprophylaxis of Influenza B Massachusetts virus infection in mice; format: in vivo, mouse; details: oral
Experimental: The activity of four compounds on Influenza B Mass. was tested in mice.
A portion of a commercially available sample of amantadine was recrystallized from isopropanol. The activity of the material against Influenza B Mass. was tested for the sample as obtained, the recrystallized portion, and the mother liquor obtained from recrystallizing the portion.

Herpes virus [4] = format: in vivo, mouse; details: oral
Vaccinia virus [5] = format: cell-based, fertile eggs; details: various concentrations
Columbia SK Polio virus = details: mouse, in vivo
Vaccinia virus [6] = format: in vivo; details: scarified rabbit skin
virus infections = test: Antiviral screening program, several viruses; details: mouse, in vivo
[7] = subcutaneous, total dose .0005 μg

NNC(N)=O [semicarbazide]
Survivors (Influenza PR 8 virus; oral, total dose .000005 μg): 0 | No. animals surviving when 18/20 of controls are dead (Influenza PR 8 virus; oral, total dose .00005 μg): 0 | Survivors (Influenza PR 8 virus; oral, total dose .00005 μg): 0 | No. animals surviving when 18/20 of controls are dead (Influenza PR 8 virus; oral, total dose .0005 μg): 0 | Survivors (Influenza PR 8 virus; oral, total dose .0005 μg): 0 | No. animals surviving when 18/20 of controls are dead (Influenza PR 8 virus; oral, total dose .005 μg): 0 | Survivors (Influenza PR 8 virus; oral, total dose .005 μg): 0 | No. animals surviving when 18/20 of controls are dead (Influenza PR 8 virus; oral, total dose .05 μg): 4 | Survivors (Influenza PR 8 virus; oral, total dose .05 μg): 4 | total number of survivors ([1]; oral, four dose levels): 10 | Survivors ([1]; subcutaneous, total dose .05 μg): 0 | No. Living Longer Than Controls, total (Herpes virus [2]; all doses): 10 | No. animals surviving when 100% controls are dead ([3]; total dose .000005 μg): 0 | Survivors ([3]; total dose .000005 μg): 0 | No. animals surviving when 100% controls are dead ([3]; total dose .00005 μg): 0 | Survivors ([3]; total dose .00005 μg): 0 | No. animals surviving when 100% controls are dead ([3]; total dose .0005 μg): 1 | Survivors ([3]; total dose .0005 μg): 0 | No. animals surviving after 5 days ([3]; total dose .005 μg): 6 | Survivors ([3]; total dose .005 μg): 0 | No. animals surviving after 5 days ([3]; total dose .05 μg): 6 | No. animals surviving when 100% controls are dead ([3]; total dose .05 μg): 1 | Survivors ([3]; total dose .05 μg): 0 | No. animals surviving after 5 days ([3]; total dose .5 μg): 4 | No. animals surviving when 100% controls are dead ([3]; total dose .5 μg): 1 | Survivors ([3]; total dose .5 μg): 0 | Survivors (Herpes virus [4]; total dose .000005 μg): 0 | Survivors (Herpes virus [4]; total dose .5 μg): 0 | effect on pox formation on the membrane (Vaccinia virus [5]): No effect on pox formation on the membrane could be observed

CCC(C)=NNC(N)=S [thiosemicarbazone]
statistically significant geometric mean survival time (Columbia SK Polio virus): two instances of a statistically significant geometric mean survival time | protection against death (Influenza PR 8 virus; drinking water 24 h pre- and 24 h post-infection): significantly protected against death | effect on pox formation (Vaccinia virus [6]): dramatic reduction and even elimination of all pox formation over several dilutions; also recorded: highly significant diminution of pox formation

CCC(C)=NNC(N)=S [2-Butanone, thiosemicarbazone, 2-butanone, thiosemicarbazone]
Survivors (Influenza PR 8 virus; drinking water 24 h post-infection only, first printed value (concentration column unclear)): 0 | Survivors (Influenza PR 8 virus; drinking water 24 h pre- and 24 h post-infection, 0.5 mg/ml): 1 | No. animals surviving after 6 days (Influenza PR 8 virus; oral, total dose .000005 μg): 6 | No. animals surviving after 7 days (Influenza PR 8 virus; oral, total dose .000005 μg): 4 | No. animals surviving after 6 days (Influenza PR 8 virus; oral, total dose .00005 μg): 5 | No. animals surviving after 7 days (Influenza PR 8 virus; oral, total dose .00005 μg): 8 | No. animals surviving when 19/20 of controls are dead (Influenza PR 8 virus; oral, total dose .00005 μg): 4 | Survivors (Influenza PR 8 virus; oral, total dose .00005 μg): 4 | No. animals surviving when 19/20 of controls are dead (Influenza PR 8 virus; oral, total dose .0005 μg): 1 | Survivors (Influenza PR 8 virus; oral, total dose .0005 μg): 1 | No. animals surviving when 19/20 of controls are dead (Influenza PR 8 virus; oral, total dose .005 μg): 0 | Survivors (Influenza PR 8 virus; subcutaneous, total dose .000005 μg): 0 | Survivors (Influenza PR 8 virus; subcutaneous, total dose .00005 μg): 0 | No. animals surviving after 6 days (Influenza PR 8 virus; [7]): 1 | Survivors (Influenza PR 8 virus; [7]): 1 | Survivors (Influenza PR 8 virus; subcutaneous, total dose .005 μg): 0 | No. Hatched, total (Herpes virus [2]; all doses): 5 | No. Living Longer Than Controls, total (Herpes virus [2]; all doses): 12 | Deaths on day 1 (Herpes virus [2]; dose 2 μg): 1 | Deaths on day 2 (Herpes virus [2]; dose 2 μg): 5 | Deaths on day 3 (Herpes virus [2]; dose 2 μg): 3 | Total Deaths 4th Day (Herpes virus [2]; dose 2 μg): 9 | Deaths on day 2 (Herpes virus [2]; dose 20 μg): 5 | Deaths on day 3 (Herpes virus [2]; dose 20 μg): 1 | Deaths on day 4 (Herpes virus [2]; dose 20 μg): 2 | Total Deaths 4th Day (Herpes virus [2]; dose 20 μg): 8 | Deaths on day 1 (Herpes virus [2]; dose .00005 μg): 2 | Deaths on day 2 (Herpes virus [2]; dose .00005 μg): 4 | Deaths on day 3 (Herpes virus [2]; dose .00005 μg): 5 | Total Deaths 4th Day (Herpes virus [2]; dose .00005 μg): 11 | Deaths on day 1 (Herpes virus [2]; dose .0005 μg): 1 | Deaths on day 2 (Herpes virus [2]; dose .0005 μg): 5 | Deaths on day 3 (Herpes virus [2]; dose .0005 μg): 3 | Deaths on day 4 (Herpes virus [2]; dose .0005 μg): 1 | Total Deaths 4th Day (Herpes virus [2]; dose .0005 μg): 10 | Deaths on day 1 (Herpes virus [2]; dose .005 μg): 2 | Deaths on day 2 (Herpes virus [2]; dose .005 μg): 4 | Deaths on day 3 (Herpes virus [2]; dose .005 μg): 2 | Deaths on day 4 (Herpes virus [2]; dose .005 μg): 3 | Total Deaths 4th Day (Herpes virus [2]; dose .005 μg): 11 | Deaths on day 1 (Herpes virus [2]; dose .05 μg): 2 | Deaths on day 2 (Herpes virus [2]; dose .05 μg): 6 | Deaths on day 3 (Herpes virus [2]; dose .05 μg): 3 | Total Deaths 4th Day (Herpes virus [2]; dose .05 μg): 11 | Deaths on day 1 (Herpes virus [2]; dose .5 μg): 1 | Deaths on day 2 (Herpes virus [2]; dose .5 μg): 3 | Deaths on day 3 (Herpes virus [2]; dose .5 μg): 6 | Deaths on day 4 (Herpes virus [2]; dose .5 μg): 2 | Total Deaths 4th Day (Herpes virus [2]; dose .5 μg): 12 | activity (in words) (virus infections): one of the most active compounds that has been studied to date | No. animals surviving after 5 days ([3]; total dose .000005 μg): 6 | No. animals surviving when 100% controls are dead ([3]; total dose .000005 μg): 3 | Survivors ([3]; total dose .000005 μg): 2 | No. animals surviving after 5 days ([3]; total dose .00005 μg): 8 | No. animals surviving when 100% controls are dead ([3]; total dose .00005 μg): 3 | Survivors ([3]; total dose .00005 μg): 2 | No. animals surviving after 5 days ([3]; total dose .0005 μg): 7 | No. animals surviving when 100% controls are dead ([3]; total dose .0005 μg): 1 | Survivors ([3]; total dose .0005 μg): 0 | No. animals surviving after 5 days ([3]; total dose .005 μg): 4 | No. animals surviving when 100% controls are dead ([3]; total dose .005 μg): 0 | Survivors ([3]; total dose .005 μg): 0 | No. animals surviving after 5 days ([3]; total dose .05 μg): 4 | No. animals surviving when 100% controls are dead ([3]; total dose .05 μg): 2 | Survivors ([3]; total dose .05 μg): 0 | No. animals surviving after 5 days ([3]; total dose .5 μg): 5 | No. animals surviving when 100% controls are dead ([3]; total dose .5 μg): 4 | Survivors ([3]; total dose .5 μg): 1 | effect on pox formation (Vaccinia virus [6]): variable | No. animals surviving when 17/20 controls are dead (Herpes virus [4]; total dose .000005 μg): 0 | Survivors (Herpes virus [4]; total dose .000005 μg): 0 | No. animals surviving when 17/20 controls are dead (Herpes virus [4]; total dose .00005 μg): 4 | No. animals surviving when 17/20 controls are dead (Herpes virus [4]; total dose .0005 μg): 5 | Survivors (Herpes virus [4]; total dose .0005 μg): 4 | No. animals surviving when 17/20 controls are dead (Herpes virus [4]; total dose .05 μg): 0 | Survivors (Herpes virus [4]; total dose .05 μg): 0
